Values quoted from earlier work as cited in PubChem BioAssay AID1259409 (Chemical Carcinogenesis Research Information System (CCRIS), 2018).

Tested on: rodent chemically induced tumor inhibition, incidence and multiplicity
Assay: CCRIS tumor inhibitor studies
Details: Promoter: NONE USED

SMILES: CC[C@@H](C)[C@H](NC(=O)CN)C(=O)N[C@H](C(=O)N[C@@H](CCC(=O)O)C(=O)N[C@@H](CCC(N)=O)C(=O)N[C@H]1CSSC[C@H]2NC(=O)[C@H]([C@H](C)CC)NC(=O)[C@H](CO)NC(=O)[C@H]([C@H](C)O)NC(=O)[C@H](CSSC[C@H](NC(=O)[C@H](CC(C)C)NC(=O)[C@H](Cc3c[nH]cn3)NC(=O)[C@H](CCC(N)=O)NC(=O)[C@@H](NC(=O)[C@@H](NC(=O)[C@@H](N)Cc3ccccc3)C(C)C)C(N)=O)C(=O)NCC(=O)N[C@@H](CO)C(=O)N[C@@H](Cc3c[nH]cn3)C(=O)N[C@@H](CC(C)C)C(=O)N[C@@H](C(C)C)C(=O)N[C@@H](CCC(=O)O)C(=O)N[C@@H](C)C(=O)N[C@@H](CC(C)C)C(=O)N[C@@H](Cc3ccc(O)cc3)C(=O)N[C@@H](CC(C)C)C(=O)N[C@@H](C(C)C)C(=O)N[C@H](C(=O)NCC(=O)N[C@@H](CCC(=O)O)C(=O)N[C@@H](CCCNC(=N)N)C(=O)NCC(=O)N[C@@H](Cc3ccccc3)C(=O)N[C@@H](Cc3ccccc3)C(=O)N[C@@H](Cc3ccc(O)cc3)C(=O)N[C@H](C(=O)N3CCC[C@H]3C(=O)N[C@@H](CCCCN)C(=O)N[C@H](C(=O)O)[C@H](C)O)[C@H](C)O)CSSC[C@@H](C(=O)N[C@@H](CC(N)=O)C(=O)O)NC(=O)[C@H](Cc3ccc(O)cc3)NC(=O)[C@H](CC(N)=O)NC(=O)[C@H](CCC(=O)O)NC(=O)[C@H](CC(C)C)NC(=O)[C@H](CCC(N)=O)NC(=O)[C@H](Cc3ccc(O)cc3)NC(=O)[C@H](CC(C)C)NC(=O)[C@H](CO)NC2=O)NC1=O)C(C)C
- tumour outcome (control, treated, inhibition, significance) (Carcinogen: 7,12-DIMETHYLBENZ[A]ANTHRACENE, 57-97-6, Dose [Inhibitor]: 0, 10 I.U. FOR 7 D BEGINNING 3 D PRIOR TO CARCINOGEN DOSE (STUDY DURATION: 6 MO), Route [Inhibitor]: SUBCUTANEOUS, Species: RAT, Strain/Sex: SWISS/FEMALE, Target Tissue: Type of Lesion: MAMMARY GLAND: TUMOR, Dose [Carcinogen]: 20 MG IN 4 ML OLIVE OIL ONCE): 22/33 (67%), 6/32 (19%), 72%, not calculated

SMILES: CCCC(=O)OC[C@@H](OC(=O)CCC)[C@@H](OC(=O)CCC)[C@H](Cn1c2nc(=O)[nH]c(=O)c-2nc2cc(C)c(C)cc21)OC(=O)CCC
- tumour outcome (control, treated, inhibition, significance) (Carcinogen: 3-METHYLCHOLANTHRENE, 56-49-5, Dose [Inhibitor]: 0.1% IN 0.05 ML ACETONE 2 HR AFTER APPLICATION OF THE CARCINOGEN THEN 1/2 D (STUDY DURATION: 15 WK), Route [Inhibitor]: DERMAL, Species: MOUSE, Strain/Sex: DDY/FEMALE, Target Tissue: Type of Lesion: SKIN: PAPILLOMA, Dose [Carcinogen]: 0.3% IN 0.05 ML ACETONE 2/WK): 7/50 (14%), 2/49 (4%), 71%, not calculated
- tumour outcome (control, treated, inhibition, significance) (Carcinogen: 3-METHYLCHOLANTHRENE, 56-49-5, Dose [Inhibitor]: 0.1% IN 0.05 ML ACETONE 2 HR AFTER APPLICATION OF THE CARCINOGEN THEN 1/2 D (STUDY DURATION: 15 WK), Route [Inhibitor]: DERMAL, Species: MOUSE, Strain/Sex: DDY/FEMALE, Target Tissue: Type of Lesion: SKIN: SQUAMOUS CELL CARCINOMA, Dose [Carcinogen]: 0.3% IN 0.05 ML ACETONE 2/WK): 34/50 (68%), 20/49 (41%), 40%, p<0.01

SMILES: COc1ccc([Se])cc1
- tumour outcome (control, treated, inhibition, significance) (Carcinogen: AZOXYMETHANE, 25843-45-2, Dose [Inhibitor]: 0, 50 PPM IN HIGH-FAT DIET BEGINNING 2 WK PRIOR TO CARCINOGEN AND CONTINUING UNTIL 2 WK POST CARCINOGEN (STUDY DURATION:, Route [Inhibitor]: ORAL, Species: RAT, Strain/Sex: F344/FEMALE, Target Tissue: Type of Lesion: COLON: ADENOMA, ADENOCARCINOMA, Dose [Carcinogen]: 15 MG/KG IN NORMAL SALINE 1/WK FOR 3 WK): 27/29 (93%), 15/31 (48%), 48%, p<0.05
- tumour outcome (control, treated, inhibition, significance) (Carcinogen: AZOXYMETHANE, 25843-45-2, Dose [Inhibitor]: 0, 50 PPM IN HIGH-FAT DIET BEGINNING 2 WK PRIOR TO CARCINOGEN AND CONTINUING UNTIL 2 WK POST CARCINOGEN (STUDY DURATION:, Route [Inhibitor]: ORAL, Species: RAT, Strain/Sex: F344/FEMALE, Target Tissue: Type of Lesion: KIDNEY: ADENOMA, ADENOCARCINOMA, NEPHROBLASTOMA, Dose [Carcinogen]: 15 MG/KG IN NORMAL SALINE 1/WK FOR 3 WK): 15/29 (52%), 8/31 (26%), 50%, p<.05
- tumour outcome (control, treated, inhibition, significance) (Carcinogen: AZOXYMETHANE, 25843-45-2, Dose [Inhibitor]: 0, 50 PPM IN HIGH-FAT DIET BEGINNING 2 WK PRIOR TO CARCINOGEN AND CONTINUING UNTIL 2 WK POST CARCINOGEN (STUDY DURATION:, Route [Inhibitor]: ORAL, Species: RAT, Strain/Sex: F344/FEMALE, Target Tissue: Type of Lesion: SMALL INTESTINE: ADENOMA, ADENOCARCINOMA, Dose [Carcinogen]: 15 MG/KG IN NORMAL SALINE 1/WK FOR 3 WK): 3/29 (10%), 5/31 (16%), -60%, not significant

SMILES: CC1(C)O[C@@H]2C[C@H]3[C@@H]4CCC5=CC(=O)C=C[C@]5(C)[C@@]4(F)[C@@H](O)C[C@]3(C)[C@]2(C(=O)CO)O1
- tumour outcome (control, treated, inhibition, significance) (Carcinogen: UVB IRRADIATION, Dose [Inhibitor]: 14.4 NMOL IN 0.1 ML ACETONE 5/WK FOR 4 WK IMMEDIATELY AFTER EACH UVB EXPOSURE FOLLOWED BY 48 WK OBSERVATION PERIOD (STUD, Route [Inhibitor]: DERMAL, Species: MOUSE, Strain/Sex: SKH/HRL/FEMALE, Target Tissue: Type of Lesion: SKIN: TUMOR, Dose [Carcinogen]: 0.3 KJ/SQM ON FIRST DAY, 0.6 KJ/SQM ON SECOND DAY AND ALL SUBSEQUENT DAYS 0.9 KJ/SQM ADMINISTERED 5 D/WK FOR 4 WK): 8/27 (30%), 4/27 (15%), 50%, not significant

SMILES: O=C(O)CCSCCC(=O)O
- tumour outcome (control, treated, inhibition, significance) (Carcinogen: 7,12-DIMETHYLBENZ[A]ANTHRACENE, 57-97-6, Dose [Inhibitor]: 1.0% IN POWDERED DIET BEGINNING 1 WK POST CARCINOGEN DOSE FOR 51 WK (STUDY DURATION: 52 WK), Route [Inhibitor]: ORAL, Species: RAT, Strain/Sex: SPRAGUE-DAWLEY/FEMALE, Target Tissue: Type of Lesion: EAR DUCT: BENIGN TUMOR, Dose [Carcinogen]: 2.5 MG/100 G BW IN 0.5 ML SESAME OIL ONCE): 7/19 (37%), 2/19 (11%), 72%, not calculated
- tumour outcome (control, treated, inhibition, significance) (Carcinogen: 7,12-DIMETHYLBENZ[A]ANTHRACENE, 57-97-6, Dose [Inhibitor]: 1.0% IN POWDERED DIET BEGINNING 1 WK POST CARCINOGEN DOSE FOR 51 WK (STUDY DURATION: 52 WK), Route [Inhibitor]: ORAL, Species: RAT, Strain/Sex: SPRAGUE-DAWLEY/FEMALE, Target Tissue: Type of Lesion: MAMMARY GLAND: FIBROADENOMA, Dose [Carcinogen]: 2.5 MG/100 G BW IN 0.5 ML SESAME OIL ONCE): 15/19 (79%), 9/19 (47%), 40%, not calculated

SMILES: CN(C)CCOc1ccc([C@H]2C[C@]3(C)[C@@H](O)CC[C@H]3[C@@H]3CCc4cc(O)ccc4[C@H]32)cc1
- tumour outcome (control, treated, inhibition, significance) (Carcinogen: ESTRADIOL, 50-28-2, Dose [Inhibitor]: 0, 25 MG/PELLET 2 PELLETS IMPLANTED EVERY 3 MO BEGINNING 15 D PRIOR TO CARCINOGEN DOSE (STUDY DURATION: 8 MO), Route [Inhibitor]: SUBCUTANEOUS IMPLANT, Species: HAMSTER, Strain/Sex: SYRIAN/MALE, Target Tissue: Type of Lesion: KIDNEY: TUMOR, Dose [Carcinogen]: 25 MG PELLET IMPLANTED EVERY 3 MO): 5/5 (100%), 7/8 (88%), 12%, not significant
